From paper PMC9820430, “New Affordable Methods for Large-Scale Isolation of Major Olive Secoiridoids and Systematic Comparative Study of Their Antiproliferative/Cytotoxic Effect on Multiple Cancer Cell Lines of Different Cancer Origins” (International Journal of Molecular Sciences, 2022)
Like-named read-outs stand apart in the source and are kept apart here.

What was measured:
Experiment in all cases: ATP-based luminescence cell viability assay (ViaLight), 72 h
Set-up in all cases: species or system human
HaCaT = HaCaT (immortal keratinocytes), 72 h treatment, read-out: EC50 Values of Olive Oil Polyphenols
Protocol: (§1) The antiproliferative/cytotoxic effects of the selected OOPs on each cell line were assessed by measuring the cellular ATP levels after 72 h treatments using an ATP-based luminescence assay. This assay, initially developed as a tumor chemosensitivity assay, has shown considerable promise as a general in vitro toxicity assay due to its high sensitivity that allows the detection of a small number of cells. Consequently, it can be applied to both cancer cell lines and primary tissue cells. […] The EC50 values were calculated by nonlinear regression (curve fit) using a sigmoidal dose–response equation (Figure 2A and Figure S2).
(§2) The OOPs tested in this study were first dissolved in an appropriate DMSO volume such as to prepare a final stock solution of 50 mM, which was further used to prepare various compound concentrations in DMSO-based solutions. The final DMSO concentration in the cell culture was maintained constant in all treated groups of any given experiment and never exceeded the value of 0.2% (v/v). For the treatment experiments, cells were plated in 96-well culture plates, in 100 μL of complete medium at a seeding density of 5000–10,000 cells/well—depending on cells’ size and doubling time—and were allowed to adhere overnight (~16 h). The next day, 150 μL of complete medium was added to each well and the cells were treated with various concentrations of OOPs. Each concentration was tested in triplicate and was repeated 2–3 times. To prepare the final concentration solutions, 0.5 μL of a 500× stock of each tested compound in DMSO was added directly into each well in a final volume of 250 μL culture medium and was gently mixed by pipetting. Control wells were prepared under the same experimental conditions by adding only DMSO at a final concentration of 0.2% (v/v). Compounds were not renewed during the entire period of cell exposure. All cells were cultured at 37 °C in a 5% (v/v) CO2 for 24, 48 or 72 h.
(§3) Briefly, after the treatment with OOPs, the adapted medium was removed from the dish wells and the cells were washed twice with medium without FBS. Then, the C-lysis (LT27-076) was diluted in PBS (1:2) and a volume of 50 μL was added to each well. Cells were incubated with C-lysis for at least 10 min. Finally, an equal volume of lysed cells from each well and ATP monitoring reagent (AMR; LT27-212) was transferred to the wells of a white-walled illuminometer plate (Greiner bio-one; 655074). Cell viability was quantified by measuring luminescence using a multi-mode microplate reader Safire^2 Tecan (software Magellan V6.00 STD.2PC WIN.20000/XP).

H1299 = details: for Selectivity index SI (MRC-5): EC50 MRC-5 / EC50 H1299; for EC50: H1299, 72 h treatment, read-out: EC50 Values of Olive Oil Polyphenols
Protocol: as §1, §2, §3

MCF 10A = MCF 10A (non-tumorigenic epithelial), 72 h treatment, read-out: EC50 Values of Olive Oil Polyphenols
Protocol: as §1, §2, §3

MCF-7 = details: 72 h treatment, read-out: EC50 Values of Olive Oil Polyphenols
Protocol: as §1, §2, §3

AGS = details: 72 h treatment, read-out: EC50 Values of Olive Oil Polyphenols
Protocol: as §1, §2, §3

PANC-1 = details: 72 h treatment, read-out: EC50 Values of Olive Oil Polyphenols
Protocol: as §1, §2, §3

SK-MEL-28 = details: for Selectivity index SI (HaCaT): EC50 HaCaT / EC50 SK-MEL-28; for Selectivity index SI (NHDF): EC50 NHDF / EC50 SK-MEL-28; for EC50: SK-MEL-28, 72 h treatment, read-out: EC50 Values of Olive Oil Polyphenols
Protocol: as §1, §2, §3

MDA-MB 231 = details: for Selectivity index SI (MCF 10A): EC50 MCF 10A / EC50 MDA-MB 231; for EC50: MDA-MB 231, 72 h treatment, read-out: EC50 Values of Olive Oil Polyphenols
Protocol: as §1, §2, §3

HT-29 = details: 72 h treatment, read-out: EC50 Values of Olive Oil Polyphenols
Protocol: as §1, §2, §3

HepG-2 = details: 72 h treatment, read-out: EC50 Values of Olive Oil Polyphenols
Protocol: as §1, §2, §3

Caco-2 = details: 72 h treatment, read-out: EC50 Values of Olive Oil Polyphenols
Protocol: as §1, §2, §3

Hela = details: 72 h treatment, read-out: EC50 Values of Olive Oil Polyphenols
Protocol: as §1, §2, §3

Huh-7 = details: 72 h treatment, read-out: EC50 Values of Olive Oil Polyphenols
Protocol: as §1, §2, §3

MKN-45 = details: 72 h treatment, read-out: EC50 Values of Olive Oil Polyphenols
Protocol: as §1, §2, §3

ME-180 = details: 72 h treatment, read-out: EC50 Values of Olive Oil Polyphenols
Protocol: as §1, §2, §3

A2058 = details: for Selectivity index SI (HaCaT): EC50 HaCaT / EC50 A2058; for Selectivity index SI (NHDF): EC50 NHDF / EC50 A2058; for EC50: A2058, 72 h treatment, read-out: EC50 Values of Olive Oil Polyphenols
Protocol: as §1, §2, §3

H1437 = details: for Selectivity index SI (MRC-5): EC50 MRC-5 / EC50 H1437; for EC50: H1437, 72 h treatment, read-out: EC50 Values of Olive Oil Polyphenols
Protocol: as §1, §2, §3

MRC-5 = MRC-5 (non cancer, lung), 72 h treatment, read-out: EC50 Values of Olive Oil Polyphenols
Protocol: as §1, §2, §3

SK-BR-3 = details: for Selectivity index SI (MCF 10A): EC50 MCF 10A / EC50 SK-BR-3; for EC50: SK-BR-3, 72 h treatment, read-out: EC50 Values of Olive Oil Polyphenols
Protocol: as §1, §2, §3

## C/C=C(/C=O)[C@@H](CC=O)CC(=O)OCCc1ccc(O)c(O)c1 [compound 2, oleacein]
HaCaT
  EC50: 51.8 ± 4.2 µM
HaCaT; Homo sapiens, HaCaT, 72 h
  EC50: > 50 µM
H1299
  Selectivity index SI (MRC-5): 0.1
H1299; Homo sapiens, NCI-H1299
  EC50: 61.7 ± 1.3 µM
MCF 10A; Homo sapiens
  EC50: 24.7 ± 2.7 µM
MCF-7; Homo sapiens, MCF7, 72 h
  EC50: > 100 µM
AGS; Homo sapiens, 72 h
  EC50: 46.2 ± 2.3 µM
PANC-1; Homo sapiens, PANC-1, 72 h
  EC50: 30.9 ± 0.2 µM
SK-MEL-28
  Selectivity index SI (HaCaT): 1.6
  Selectivity index SI (NHDF): 1.5
SK-MEL-28; Homo sapiens, SK-MEL-28, 72 h
  EC50: 33.4 ± 2.4 µM
MDA-MB 231
  Selectivity index SI (MCF 10A): 0.7
MDA-MB 231; Homo sapiens, MDA-MB-231, 72 h
  EC50: 37.7 ± 2.2 µM
HT-29; Homo sapiens, HT-29, 72 h
  EC50: > 100 µM
HepG-2; Homo sapiens, HepG2, 72 h
  EC50: 82.8 ± 0.7 µM
Caco-2; Homo sapiens, Caco-2, 72 h
  EC50: > 100 µM
Hela; Homo sapiens, HeLa, 72 h
  EC50: 46.3 ± 4.9 µM
Huh-7; Homo sapiens, Huh-7, 72 h
  EC50: 49.6 ± 0.5 µM
MKN-45; Homo sapiens, MKN-45, 72 h
  EC50: 25 ± 2.1 µM
ME-180; Homo sapiens, ME-180, 72 h
  EC50: 25.2 ± 0.2 µM
A2058
  Selectivity index SI (HaCaT): 0.9
  Selectivity index SI (NHDF): 0.9
A2058; Homo sapiens, A2058, 72 h
  EC50: 55.7 ± 3.4 µM
H1437
  Selectivity index SI (MRC-5): 0.1
H1437; Homo sapiens, NCI-H1437, 72 h
  EC50: 74.6 ± 2.1 µM
MRC-5; Homo sapiens, MRC5
  EC50: 7 ± 0.9 µM
SK-BR-3
  Selectivity index SI (MCF 10A): 0.5
SK-BR-3; Homo sapiens, SK-BR-3, 72 h
  EC50: 45.6 ± 2.2 µM

## C/C=C(/C=O)[C@@H](CC=O)CC(=O)OCCc1ccc(O)cc1 [compound 1, oleocanthal]
HaCaT; Homo sapiens, HaCaT, 72 h
  EC50: 19.3 ± 0.3 µM
MCF 10A; Homo sapiens
  EC50: 7 ± 0.3 µM
MCF-7
  EC50: 24.6 ± 2.6 µM
MCF-7; Homo sapiens, MCF7, 72 h
  EC50: > 25 µM
AGS; Homo sapiens, 72 h
  EC50: 18.3 ± 1 µM
PANC-1; Homo sapiens, PANC-1, 72 h
  EC50: 14.9 ± 0.9 µM
SK-MEL-28; Homo sapiens, SK-MEL-28, 72 h
  EC50: 10.4 ± 1.1 µM
MDA-MB 231; Homo sapiens, MDA-MB-231, 72 h
  EC50: 10.4 ± 0.8 µM
HT-29; Homo sapiens, HT-29, 72 h
  EC50: 26.3 ± 2 µM
HepG-2; Homo sapiens, HepG2, 72 h
  EC50: 40 ± 5.3 µM
Caco-2
  EC50: 34.3 ± 4.1 µM
Caco-2; Homo sapiens, Caco-2, 72 h
  EC50: 33.4 µM
Hela; Homo sapiens, HeLa, 72 h
  EC50: 44.6 ± 0.4 µM
Huh-7; Homo sapiens, Huh-7, 72 h
  EC50: 20.2 ± 1.5 µM
MKN-45; Homo sapiens, MKN-45, 72 h
  EC50: 10.2 ± 0.4 µM
ME-180; Homo sapiens, ME-180, 72 h
  EC50: 9.1 ± 0.3 µM
A2058; Homo sapiens, A2058, 72 h
  EC50: 18.4 ± 0.4 µM
H1437; Homo sapiens, NCI-H1437, 72 h
  EC50: 26.5 ± 1.1 µM
MRC-5; Homo sapiens, MRC5
  EC50: 2 ± 0.1 µM
SK-BR-3; Homo sapiens, SK-BR-3, 72 h
  EC50: 13 ± 0.6 µM

## ligstroside aglycone [4a,b]
HaCaT
  EC50: 55.6 ± 1 µM
H1299
  Selectivity index SI (MRC-5): 0.2
  EC50: 83.3 ± 1.9 µM
MCF 10A
  EC50: 55.8 ± 2.7 µM
MCF-7
  EC50: 61.8 ± 1.2 µM
AGS
  EC50: 48.5 ± 2.5 µM
PANC-1
  EC50: 45.7 ± 1.4 µM
SK-MEL-28
  Selectivity index SI (HaCaT): 2.5
  Selectivity index SI (NHDF): 2.1
  EC50: 22.2 ± 1.2 µM
MDA-MB 231
  Selectivity index SI (MCF 10A): 1.9
  EC50: 31.6 ± 2.7 µM
HT-29
  EC50: 98.2 ± 8.4 µM
HepG-2
  EC50: 45.8 ± 3.4 µM
Caco-2
  EC50: 24.4 ± 1.6 µM
Hela
  EC50: 47.6 ± 1.8 µM
Huh-7
  EC50: 36 ± 0.9 µM
MKN-45
  EC50: 24 ± 1.2 µM
ME-180
  EC50: 51.1 ± 2.2 µM
A2058
  EC50: 63.6 ± 1.6 µM
  Selectivity index SI (HaCaT): 0.9
  Selectivity index SI (NHDF): 0.7
H1437
  Selectivity index SI (MRC-5): 1.1
  EC50: 11.6 ± 1.1 µM
MRC-5
  EC50: 13.2 ± 0.9 µM
SK-BR-3
  Selectivity index SI (MCF 10A): 2.6
  EC50: 21.5 ± 2.5 µM

## COC(=O)C1=COC(C)[C@@H](C=O)[C@@H]1CC(=O)OCCc1ccc(O)c(O)c1 (mixture of isomers) [3a,b, oleuropein aglycone]
HaCaT; Homo sapiens, HaCaT, 72 h
  EC50: 36.6 µM
H1299
  Selectivity index SI (MRC-5): 0.4
H1299; Homo sapiens, NCI-H1299
  EC50: 24.1 ± 0.9 µM
MCF 10A; Homo sapiens
  EC50: 9.5 ± 0.4 µM
MCF-7; Homo sapiens, MCF7, 72 h
  EC50: 32.2 ± 1.1 µM
AGS; Homo sapiens, 72 h
  EC50: 35.9 ± 1.4 µM
PANC-1; Homo sapiens, PANC-1, 72 h
  EC50: 19.1 ± 0.6 µM
SK-MEL-28
  Selectivity index SI (HaCaT): 2.4
  Selectivity index SI (NHDF): 2.8
  EC50: 15.1 ± 0.9 µM
SK-MEL-28; Homo sapiens, SK-MEL-28, 72 h
  EC50: 22.2 µM
MDA-MB 231
  Selectivity index SI (MCF 10A): 0.4
  EC50: 25.4 ± 0.8 µM
MDA-MB 231; Homo sapiens, MDA-MB-231, 72 h
  EC50: 24.5 µM
HT-29; Homo sapiens, HT-29, 72 h
  EC50: 50.1 ± 1.5 µM
HepG-2; Homo sapiens, HepG2, 72 h
  EC50: 17.7 ± 0.5 µM
Caco-2; Homo sapiens, Caco-2, 72 h
  EC50: 24.5 ± 0.9 µM
Hela; Homo sapiens, HeLa, 72 h
  EC50: 27.6 ± 0.3 µM
Huh-7; Homo sapiens, Huh-7, 72 h
  EC50: 13 ± 0.1 µM
MKN-45; Homo sapiens, MKN-45, 72 h
  EC50: 16.4 ± 1.6 µM
ME-180; Homo sapiens, ME-180, 72 h
  EC50: 25.5 ± 0.5 µM
A2058
  Selectivity index SI (HaCaT): 1.0
  Selectivity index SI (NHDF): 1.1
A2058; Homo sapiens, A2058, 72 h
  EC50: 37.2 ± 0.8 µM
H1437
  Selectivity index SI (MRC-5): 0.7
H1437; Homo sapiens, NCI-H1437, 72 h
  EC50: 11.9 ± 0.6 µM
MRC-5; Homo sapiens, MRC5
  EC50: 8.6 ± 0.4 µM
SK-BR-3
  Selectivity index SI (MCF 10A): 0.5
SK-BR-3; Homo sapiens, SK-BR-3, 72 h
  EC50: 17.7 ± 1.4 µM
